Experiments:
[1] = tested on: human PBMC; experiment: IL-2-dependent growth of human peripheral blood mononuclear cells (CellTiter-Glo); type: cell-based; settings: 48 h, IL-2 2 ng/mL stimulation, 2 days
Protocol: The activity of the compound of the present invention to inhibit the IL-2-dependent growth reaction of human PBMC, which is caused by JAK3, was measured (Arthritis Rheum. 2010; 62(8): 2283-93).
Using a medium comprising 10 μg/mL PHA-M (Sigma) (which is RPMI-1640 (Sigma) comprising 10% human serum type AB (MP Biomedicals)), human PBMC (C.T.L.) (cell density: 1×10^6 cells/mL) was cultured at 37° C. in a culture vessel comprising 5% carbon dioxide for 3 days. Thereafter, the culture was washed with RPMI-1640 four times, and a medium (RPMI-1640 comprising 10% human serum type AB) was then added to the resultant culture to prepare a cell suspension. The cells (1×10^4 cells per well) and the serially diluted compound of the present invention were added to each well of a 96-well U-bottom microplate, and the thus obtained mixture was then cultured at 37° C. in a culture vessel comprising 5% carbon dioxide for 30 minutes. After completion of the culture, recombinant human IL-2 (Peprotech) was added to the culture to a final concentration of 2 ng/mL, and the obtained mixture was then stirred at 37° C. in a culture vessel comprising 5% carbon dioxide for 2 days (1×10^4 cells/100 μl/each well). After completion of the culture, the resultant was left at a room temperature for 30 minutes, and 100 μl of CellTiter-Glo Luminescent Cell Viability Assay (Promega) was then added to the resultant, followed by stirring it. Thereafter, the reaction mixture was left for 10 minutes, and the amount of a luminescence derived from living cells in each well was then measured using a microplate reader (TECAN). The inhibition rate of the present compound to the cell growth caused by IL-2 stimulation was calculated, and the concentration of the compound capable of inhibiting 50% of the cell growth was defined as an IC50 value (nM).

[2] = target: purified recombinant human JAK1 protein (Homo sapiens (Human), UniProt P23458); experiment: JAK1 kinase-inhibiting activity (mobility shift, LabChip EZ Reader II); type: biochemical; settings: ATP 75 μM, 25° C., 120 minutes
Protocol: 1) Measurement of JAK1 Kinase-Inhibiting Activity
The activity of the compound of the present invention to inhibit the activity of JAK1 kinase was measured.
(§1) Among materials for the measurement of this inhibiting activity, a substrate peptide and a kinase protein were acquired as follows. As such a substrate peptide, a substrate peptide for QSS Assist JAK1-MSA assay kit (Carna Biosciences, Inc.) was purchased. As such a kinase protein, a purified recombinant human JAK1 protein (Carna Biosciences, Inc.) was purchased.
The method for measuring the inhibiting activity is as follows. First, the compounds of the present invention were each dissolved in dimethyl sulfoxide (DMSO), and a serial dilution was then prepared using DMSO. Subsequently, a serial dilution solution of the compound (the final concentration of DMSO upon a kinase reaction: 5.0%) or DMSO (final concentration: 5.0%) was mixed with a solution comprising the substrate peptide (final concentration: 1 μM), magnesium chloride (final concentration: 5 mM) and ATP (final concentration: 75 μM) in a buffer for kinase reaction (20 mM HEPES (pH 7.5), 2 mM dithiothreitol and 0.01% Triton X-100). Thereafter, a JAK1 protein was further added to the mixed solution, and the obtained mixture was then incubated at 25° C. for 120 minutes to carry out a kinase reaction. To the reaction solution, EDTA was added to a final concentration of 30 mM, so as to terminate the reaction. Finally, using LabChip EZ Reader II (Perkin Elmer Corp.), an unphosphorylated substrate peptide (S) and a phosphorylated peptide (P) were subjected to microchannel capillary electrophoresis, so that the two peptides were separated from each other and were then detected. The amount of a phosphorylation reaction was obtained based on the heights of the peaks of S and P, and the concentration of the compound capable of inhibiting 50% of the phosphorylation reaction was defined as an IC50 value (nM).

[3] = target: purified recombinant human JAK3 protein (Homo sapiens (Human), UniProt P52333); experiment: JAK3 kinase-inhibiting activity (mobility shift, LabChip EZ Reader II); type: biochemical; settings: ATP 5 μM, 25° C., 80 minutes
Protocol: 3) Measurement of JAK3 Kinase-Inhibiting Activity
The activity of the compound of the present invention to inhibit the activity of JAK3 kinase was measured.
as §1, with “JAK3-MSA” for “JAK1-MSA”, “JAK3” for “JAK1”
The method for measuring the inhibiting activity is as follows. First, a serial dilution of the compound of the present invention was prepared by the same method as that described in the above section regarding JAK1. This serial dilution solution (the final concentration of DMSO upon a kinase reaction: 5.0%) or DMSO (final concentration: 5.0%) was mixed with a solution comprising the substrate peptide (final concentration: 1 μM), magnesium chloride (final concentration: 5 mM) and ATP (final concentration: 5 μM) in a buffer for kinase reaction (20 mM HEPES (pH 7.5), 2 mM dithiothreitol and 0.01% Triton X-100). Thereafter, a JAK3 protein was further added to the mixed solution, and the obtained mixture was then incubated at 25° C. for 80 minutes to carry out a kinase reaction. To the reaction solution, EDTA was added to a final concentration of 30 mM, so as to terminate the reaction. After termination of the reaction, the measurement and the data analysis were carried out by the same methods as those described in the above section regarding JAK1.

[4] = target: purified recombinant human JAK2 protein (Homo sapiens (Human), UniProt O60674); experiment: JAK2 kinase-inhibiting activity (mobility shift, LabChip EZ Reader II); type: biochemical; settings: ATP 10 μM, 25° C., 80 minutes
Protocol: 2) Measurement of JAK2 Kinase-Inhibiting Activity
The activity of the compound of the present invention to inhibit the activity of JAK2 kinase was measured.
as §1, with “FL-Peptide 22 (Perkin Elmer Corp.)” for “a substrate peptide for QSS Assist JAK1-MSA assay kit (Carna Biosciences, Inc.)”, “JAK2” for “JAK1”
The method for measuring the inhibiting activity is as follows. First, a serial dilution of the compound of the present invention was prepared by the same method as that described in the above section regarding JAK1. This serial dilution solution (the final concentration of DMSO upon a kinase reaction: 5.0%) or DMSO (final concentration: 5.0%) was mixed with a solution comprising the substrate peptide (final concentration: 1 μM), magnesium chloride (final concentration: 10 mM) and ATP (final concentration: 10 μM) in a buffer for kinase reaction (15 mM Tris (pH 7.5), 2 mM dithiothreitol and 0.01% Tween 20). Thereafter, a JAK2 protein was further added to the mixed solution, and the obtained mixture was then incubated at 25° C. for 80 minutes to carry out a kinase reaction. To the reaction solution, EDTA was added to a final concentration of 30 mM, so as to terminate the reaction. After termination of the reaction, the measurement and the data analysis were carried out by the same methods as those described in the above section regarding JAK1.

[5] = tested on: IL-2-induced IFN-γ production; experiment: Mouse IL-2-induced IFN-γ production test; type: in vivo; settings: oral 1 mg/kg and 3 mg/kg, serum 3 hours after IL-2, BALB/c mice
Protocol: The inhibitory activity of the compound of the present invention and the compounds of comparative examples on mouse IL-2-induced IFN-γ production caused by JAK3 was measured (Arthritis Rheum. 2010; 62 (8): 2283-93, Inflammation Research 2015; 64 (1): 41-51).
Seven-week-old male BALB/c mice (Charles River Japan) were divided into five groups (6 mice per group), namely, a vehicle group, a Compound 7 (1 mpk) group, a Compound 7 (3 mpk) group, a Comparative Example 12 (1 mpk) group, and a Comparative Example 12 (3 mpk) group. Compound 7 and the compound of Comparative Example 12 were each administered to the 1 mpk group and the 3 mpk group via oral administration at doses of 1 mg/kg and 3 mg/kg, respectively. […] Three hours after administration of IL-2, blood was collected from all of the five groups, and the IFN-γ concentration in the serum was measured using BD In Vivo Capture Assay for Mouse IFN-γ (BD Biosciences). The relative amount of IFN-γ generated by IL-2 stimulation was calculated according to the following calculation formula: Relative amount of IFN-γ=(IFN-γ concentration of each group)×100/(IFN-γ concentration of vehicle group), and the results are shown in FIG. 1 (mean value±standard error: regarding vs Vehicle, Dunnett test, *: p<0.05, ***: p<0.001; regarding vs Comparative Example 12 (3 mpk), Student t-test, ##: p<0.01).

Sequence of purified recombinant human JAK1 protein (P23458 whole entry): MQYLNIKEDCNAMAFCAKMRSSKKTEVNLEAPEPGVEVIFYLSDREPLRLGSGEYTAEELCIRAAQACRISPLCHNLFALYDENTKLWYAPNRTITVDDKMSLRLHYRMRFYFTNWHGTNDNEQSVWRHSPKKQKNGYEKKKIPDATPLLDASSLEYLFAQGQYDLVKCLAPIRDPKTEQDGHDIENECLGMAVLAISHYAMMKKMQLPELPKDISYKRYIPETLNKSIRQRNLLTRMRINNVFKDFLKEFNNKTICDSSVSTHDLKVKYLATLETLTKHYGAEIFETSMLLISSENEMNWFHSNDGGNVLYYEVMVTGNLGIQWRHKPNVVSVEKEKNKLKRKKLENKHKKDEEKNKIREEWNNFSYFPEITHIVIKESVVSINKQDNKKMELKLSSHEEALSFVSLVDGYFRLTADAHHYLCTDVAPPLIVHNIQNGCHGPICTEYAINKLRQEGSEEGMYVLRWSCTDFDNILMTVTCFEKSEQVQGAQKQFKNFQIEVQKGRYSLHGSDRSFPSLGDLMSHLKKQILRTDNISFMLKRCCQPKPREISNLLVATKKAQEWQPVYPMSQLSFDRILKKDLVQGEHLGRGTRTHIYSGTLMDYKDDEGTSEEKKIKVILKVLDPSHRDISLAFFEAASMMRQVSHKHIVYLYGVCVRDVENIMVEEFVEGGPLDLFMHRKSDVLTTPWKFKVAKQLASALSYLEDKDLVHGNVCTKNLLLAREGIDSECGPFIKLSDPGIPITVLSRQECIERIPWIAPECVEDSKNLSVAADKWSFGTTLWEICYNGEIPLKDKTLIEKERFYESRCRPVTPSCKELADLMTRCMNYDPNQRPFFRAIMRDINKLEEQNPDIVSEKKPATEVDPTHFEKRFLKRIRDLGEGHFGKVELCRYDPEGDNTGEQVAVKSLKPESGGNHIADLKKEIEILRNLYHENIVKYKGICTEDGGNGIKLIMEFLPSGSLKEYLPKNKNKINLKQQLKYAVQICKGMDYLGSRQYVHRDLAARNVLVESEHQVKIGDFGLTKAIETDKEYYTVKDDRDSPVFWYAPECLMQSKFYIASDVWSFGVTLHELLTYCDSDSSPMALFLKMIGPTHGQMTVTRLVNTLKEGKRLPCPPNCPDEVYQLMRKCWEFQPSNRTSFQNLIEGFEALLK
Sequence of purified recombinant human JAK2 protein (O60674 whole entry): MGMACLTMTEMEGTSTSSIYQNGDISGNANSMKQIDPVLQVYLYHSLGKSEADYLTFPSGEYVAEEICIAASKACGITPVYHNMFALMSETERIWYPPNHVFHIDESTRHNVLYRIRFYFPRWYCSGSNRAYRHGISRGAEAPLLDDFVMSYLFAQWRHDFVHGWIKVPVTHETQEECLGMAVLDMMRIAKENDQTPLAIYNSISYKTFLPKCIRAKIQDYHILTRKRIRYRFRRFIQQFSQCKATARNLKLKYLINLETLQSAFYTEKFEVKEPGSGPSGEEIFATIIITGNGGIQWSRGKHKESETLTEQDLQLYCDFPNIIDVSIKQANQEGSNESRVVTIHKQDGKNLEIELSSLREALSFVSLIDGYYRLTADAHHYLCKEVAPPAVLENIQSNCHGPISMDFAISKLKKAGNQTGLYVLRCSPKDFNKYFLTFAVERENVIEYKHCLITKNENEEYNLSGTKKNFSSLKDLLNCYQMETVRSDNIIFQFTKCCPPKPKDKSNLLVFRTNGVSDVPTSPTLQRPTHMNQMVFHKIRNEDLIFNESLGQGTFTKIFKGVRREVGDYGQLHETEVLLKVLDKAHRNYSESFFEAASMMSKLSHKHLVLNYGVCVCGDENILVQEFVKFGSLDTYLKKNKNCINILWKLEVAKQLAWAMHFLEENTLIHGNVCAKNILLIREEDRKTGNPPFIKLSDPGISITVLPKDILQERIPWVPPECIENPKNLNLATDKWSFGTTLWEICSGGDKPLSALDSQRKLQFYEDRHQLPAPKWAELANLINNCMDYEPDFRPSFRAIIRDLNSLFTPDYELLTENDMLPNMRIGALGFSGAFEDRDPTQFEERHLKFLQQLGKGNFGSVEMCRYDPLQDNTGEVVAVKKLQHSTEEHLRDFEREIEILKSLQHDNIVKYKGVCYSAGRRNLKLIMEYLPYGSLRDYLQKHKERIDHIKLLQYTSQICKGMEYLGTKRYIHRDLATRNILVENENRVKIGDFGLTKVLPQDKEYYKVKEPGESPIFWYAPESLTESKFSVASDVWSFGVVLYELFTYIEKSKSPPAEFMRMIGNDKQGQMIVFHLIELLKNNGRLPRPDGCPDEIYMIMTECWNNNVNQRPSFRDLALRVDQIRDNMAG
Sequence of purified recombinant human JAK3 protein (P52333 whole entry): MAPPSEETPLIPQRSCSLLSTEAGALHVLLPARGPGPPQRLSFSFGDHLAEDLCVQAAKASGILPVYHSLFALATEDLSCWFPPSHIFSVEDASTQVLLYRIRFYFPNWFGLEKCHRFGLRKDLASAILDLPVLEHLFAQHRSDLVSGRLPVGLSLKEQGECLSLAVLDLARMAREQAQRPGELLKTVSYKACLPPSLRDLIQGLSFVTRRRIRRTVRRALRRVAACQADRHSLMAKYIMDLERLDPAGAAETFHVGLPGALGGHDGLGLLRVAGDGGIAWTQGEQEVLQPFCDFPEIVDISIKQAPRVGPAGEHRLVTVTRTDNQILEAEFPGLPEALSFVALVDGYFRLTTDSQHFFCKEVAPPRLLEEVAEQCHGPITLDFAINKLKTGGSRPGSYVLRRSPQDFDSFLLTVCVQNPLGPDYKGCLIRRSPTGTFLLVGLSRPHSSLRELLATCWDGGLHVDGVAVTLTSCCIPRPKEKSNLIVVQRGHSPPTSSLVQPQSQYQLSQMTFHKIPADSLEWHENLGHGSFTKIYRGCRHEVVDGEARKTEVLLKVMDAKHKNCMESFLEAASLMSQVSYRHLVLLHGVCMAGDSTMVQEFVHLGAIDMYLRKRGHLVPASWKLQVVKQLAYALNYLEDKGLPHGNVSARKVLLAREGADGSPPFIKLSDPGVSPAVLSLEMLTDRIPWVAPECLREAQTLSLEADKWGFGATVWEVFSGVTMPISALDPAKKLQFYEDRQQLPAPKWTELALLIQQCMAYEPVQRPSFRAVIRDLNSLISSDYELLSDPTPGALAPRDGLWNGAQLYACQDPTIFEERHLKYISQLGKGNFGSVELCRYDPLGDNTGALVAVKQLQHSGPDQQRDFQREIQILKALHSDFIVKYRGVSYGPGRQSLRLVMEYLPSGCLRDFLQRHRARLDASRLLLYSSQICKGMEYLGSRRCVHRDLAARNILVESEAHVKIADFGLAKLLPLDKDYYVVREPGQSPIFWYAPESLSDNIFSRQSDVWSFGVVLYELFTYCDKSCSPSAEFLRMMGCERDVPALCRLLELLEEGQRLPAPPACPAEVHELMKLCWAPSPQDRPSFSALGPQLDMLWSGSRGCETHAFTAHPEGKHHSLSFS

Row | SMILES | IC50 [1] | IC50 [2] | IC50 [3] | IC50 [4] | suppression of IFN-γ production in vivo [5]
1 | C=CC(=O)Nc1cccc(-c2ncnc3[nH]cc(-c4ccccc4)c23)c1 [Comparative Example 12, N-(3-(5-Phenyl-7H-pyrrolo[2,3-d]pyrimidin-4-yl)phenyl)acrylamide, reference compound] | 546 nM | > 1000 nM | 0.09 nM | > 1000 nM | did not exhibit such a significant IFN-γ production-suppressing action
2 | C=CC(=O)N[C@H]1CCC=C(c2ncnc3[nH]cc(-c4ccco4)c23)C1 [Compound 7, (S)—N-(3-(5-(Furan-2-yl)-7H-pyrrolo[2,3-d]pyrimidin-4-yl)cyclohex-3-en-1-yl)acrylamide] | 18 nM | 440 nM | < 0.3 nM | 330 nM | 
3 | C=CC(=O)NC1CC=C(c2ncnc3[nH]cc(-c4ccco4)c23)C1 (stereo not shown) [Compound 8, N-(3-(5-(Furan-2-yl)-7H-pyrrolo[2,3-d]pyrimidin-4-yl)cyclopent-3-en-1-yl)acrylamide] | 83 nM | 1400 nM | < 0.3 nM | 430 nM | 
4 | C=CC(=O)NC1CC=C(c2ncnc3[nH]cc(-c4ccccc4)c23)C1 (stereo not shown) [Compound 9, N-(3-(5-Phenyl-7H-pyrrolo[2,3-d]pyrimidin-4-yl)cyclopent-3-en-1-yl)acrylamide] | 99 nM | 2100 nM | < 0.3 nM | 880 nM | 
5 | C=CC(=O)NC1C=C(c2ncnc3[nH]cc(-c4cccs4)c23)CCC1 (stereo not shown) [Compound 13, N-(3-(5-(Thiophen-2-yl)-7H-pyrrolo[2,3-d]pyrimidin-4-yl)cyclohex-2-en-1-yl)acrylamide] | 110 nM | 3200 nM | < 0.3 nM | 490 nM | 
6 | C=CC(=O)NC1C=C(c2ncnc3[nH]cc(-c4ccsc4)c23)CCC1 (stereo not shown) [Compound 14, N-(3-(5-(Thiophen-3-yl)-7H-pyrrolo[2,3-d]pyrimidin-4-yl)cyclohex-2-en-1-yl)acrylamide] | 110 nM | 5600 nM | < 0.3 nM | 1200 nM | 

Reference: patent US10421760B2, “Pyrrolo[2,3-d]pyrimidine compound or salt thereof” (TAIHO PHARMACEUTICAL CO., LTD., priority 2015, dated 2019)
